Here are results for 13 compounds from ChEMBL document CHEMBL1132082, “Nonsteroidal androgen receptor agonists based on 4-(trifluoromethyl)-2H-pyrano[3,2-g]quinolin-2-one” (Bioorg Med Chem Lett, 1999).

Experiment [1] deals with T1, Androgen receptor (Homo sapiens, UniProt P10275).
T1 sequence (P10275 whole entry): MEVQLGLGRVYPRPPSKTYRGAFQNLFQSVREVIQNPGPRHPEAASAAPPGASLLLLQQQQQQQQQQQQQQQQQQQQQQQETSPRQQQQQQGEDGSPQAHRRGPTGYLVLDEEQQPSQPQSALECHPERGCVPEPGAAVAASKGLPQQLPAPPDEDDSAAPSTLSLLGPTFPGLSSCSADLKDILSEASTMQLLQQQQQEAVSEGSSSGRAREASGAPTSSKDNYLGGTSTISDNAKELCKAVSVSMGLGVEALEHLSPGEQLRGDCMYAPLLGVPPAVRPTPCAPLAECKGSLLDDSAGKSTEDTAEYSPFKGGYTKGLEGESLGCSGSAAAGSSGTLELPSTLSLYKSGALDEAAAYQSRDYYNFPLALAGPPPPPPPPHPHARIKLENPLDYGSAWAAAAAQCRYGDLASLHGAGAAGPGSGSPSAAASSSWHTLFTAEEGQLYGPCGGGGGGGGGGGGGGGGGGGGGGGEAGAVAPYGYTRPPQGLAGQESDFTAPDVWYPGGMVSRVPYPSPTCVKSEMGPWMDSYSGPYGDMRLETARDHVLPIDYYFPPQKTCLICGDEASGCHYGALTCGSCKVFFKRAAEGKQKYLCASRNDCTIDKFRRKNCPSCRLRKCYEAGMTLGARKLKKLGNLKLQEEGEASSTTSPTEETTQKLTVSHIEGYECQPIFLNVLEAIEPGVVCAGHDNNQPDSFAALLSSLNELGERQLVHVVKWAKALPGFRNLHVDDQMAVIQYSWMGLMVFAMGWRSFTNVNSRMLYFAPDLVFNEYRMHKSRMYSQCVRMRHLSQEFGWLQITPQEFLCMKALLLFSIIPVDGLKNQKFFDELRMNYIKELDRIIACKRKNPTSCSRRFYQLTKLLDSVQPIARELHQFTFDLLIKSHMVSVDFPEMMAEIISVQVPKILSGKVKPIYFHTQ

In experiment [2] the target is T2, Estrogen receptor (Homo sapiens, UniProt Q92731+P03372). In words: In vitro antagonistic activity against human estrogen receptor (hER); Not active. The class given is functional.
For experiment [3], the target named is T2, Estrogen receptor. Kind of experiment: (§1) In vitro antagonistic activity against human estrogen receptor (hER). The experiment is classed as functional.
Experiment [4] addresses T3, Glucocorticoid receptor (Homo sapiens, UniProt P04150).
T3 sequence (P04150 whole entry): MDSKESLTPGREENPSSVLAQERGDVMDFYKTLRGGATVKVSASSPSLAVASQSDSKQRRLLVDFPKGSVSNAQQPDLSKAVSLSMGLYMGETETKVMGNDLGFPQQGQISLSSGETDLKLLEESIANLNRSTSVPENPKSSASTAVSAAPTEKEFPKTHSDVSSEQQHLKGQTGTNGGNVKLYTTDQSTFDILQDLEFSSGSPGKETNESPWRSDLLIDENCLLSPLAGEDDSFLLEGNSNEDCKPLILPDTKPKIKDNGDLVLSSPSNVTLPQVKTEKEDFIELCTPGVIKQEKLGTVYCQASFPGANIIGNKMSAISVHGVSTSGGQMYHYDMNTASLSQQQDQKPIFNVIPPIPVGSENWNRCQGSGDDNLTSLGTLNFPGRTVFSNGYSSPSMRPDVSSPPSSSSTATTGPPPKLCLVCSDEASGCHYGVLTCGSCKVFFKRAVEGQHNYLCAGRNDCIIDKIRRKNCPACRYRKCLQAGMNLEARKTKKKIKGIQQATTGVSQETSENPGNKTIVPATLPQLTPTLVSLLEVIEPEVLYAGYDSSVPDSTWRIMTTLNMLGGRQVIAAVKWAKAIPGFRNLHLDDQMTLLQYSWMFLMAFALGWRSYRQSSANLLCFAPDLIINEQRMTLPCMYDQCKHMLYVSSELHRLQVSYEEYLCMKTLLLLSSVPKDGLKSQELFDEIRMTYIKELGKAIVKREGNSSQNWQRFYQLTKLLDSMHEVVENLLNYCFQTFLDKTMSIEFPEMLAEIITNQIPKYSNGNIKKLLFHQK
Kind of experiment: In vitro antagonistic activity against human glucocorticoid receptor (hGR). The class given is functional.

Experiment [5] addresses T4, Mineralocorticoid receptor (Homo sapiens, UniProt P08235).
T4 sequence (P08235 whole entry): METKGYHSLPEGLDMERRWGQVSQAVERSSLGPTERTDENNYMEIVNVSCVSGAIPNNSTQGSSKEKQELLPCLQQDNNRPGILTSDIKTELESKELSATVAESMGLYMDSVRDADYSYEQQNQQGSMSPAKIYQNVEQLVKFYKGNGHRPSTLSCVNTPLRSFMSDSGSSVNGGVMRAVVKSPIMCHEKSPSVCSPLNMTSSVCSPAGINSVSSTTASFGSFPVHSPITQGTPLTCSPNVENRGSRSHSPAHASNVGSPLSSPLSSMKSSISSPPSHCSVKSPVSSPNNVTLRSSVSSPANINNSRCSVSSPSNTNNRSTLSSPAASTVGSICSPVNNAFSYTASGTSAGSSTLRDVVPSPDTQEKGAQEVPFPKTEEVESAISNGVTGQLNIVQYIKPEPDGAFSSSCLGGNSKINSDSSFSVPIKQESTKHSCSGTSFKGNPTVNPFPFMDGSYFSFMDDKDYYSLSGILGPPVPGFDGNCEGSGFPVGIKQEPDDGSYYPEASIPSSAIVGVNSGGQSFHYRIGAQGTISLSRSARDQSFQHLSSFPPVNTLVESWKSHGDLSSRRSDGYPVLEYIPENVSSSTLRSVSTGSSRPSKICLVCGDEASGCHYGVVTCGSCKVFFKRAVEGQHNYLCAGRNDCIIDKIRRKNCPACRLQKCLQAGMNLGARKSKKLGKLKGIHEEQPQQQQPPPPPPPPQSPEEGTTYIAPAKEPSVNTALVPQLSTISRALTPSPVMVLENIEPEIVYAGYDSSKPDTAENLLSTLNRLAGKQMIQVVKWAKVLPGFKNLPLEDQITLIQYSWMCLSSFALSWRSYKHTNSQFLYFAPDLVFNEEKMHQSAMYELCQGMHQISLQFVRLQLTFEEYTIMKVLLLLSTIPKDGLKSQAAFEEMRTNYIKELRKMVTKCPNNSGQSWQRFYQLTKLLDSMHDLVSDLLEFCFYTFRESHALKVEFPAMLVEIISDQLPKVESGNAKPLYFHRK
Kind of experiment: (§2) In vitro antagonistic activity against human mineralocorticoid receptor (hMR). The class given is functional.

Experiment [6] concerns the target T5, Mineralocorticoid receptor (Homo sapiens) (UniProt P08235).
T5 sequence (whole entry): T4 sequence (P08235 whole entry)
The description is as §2. The class given is functional.

The target of experiment [7] is T6, Progesterone receptor (Homo sapiens) (UniProt P06401).
T6 sequence (whole entry): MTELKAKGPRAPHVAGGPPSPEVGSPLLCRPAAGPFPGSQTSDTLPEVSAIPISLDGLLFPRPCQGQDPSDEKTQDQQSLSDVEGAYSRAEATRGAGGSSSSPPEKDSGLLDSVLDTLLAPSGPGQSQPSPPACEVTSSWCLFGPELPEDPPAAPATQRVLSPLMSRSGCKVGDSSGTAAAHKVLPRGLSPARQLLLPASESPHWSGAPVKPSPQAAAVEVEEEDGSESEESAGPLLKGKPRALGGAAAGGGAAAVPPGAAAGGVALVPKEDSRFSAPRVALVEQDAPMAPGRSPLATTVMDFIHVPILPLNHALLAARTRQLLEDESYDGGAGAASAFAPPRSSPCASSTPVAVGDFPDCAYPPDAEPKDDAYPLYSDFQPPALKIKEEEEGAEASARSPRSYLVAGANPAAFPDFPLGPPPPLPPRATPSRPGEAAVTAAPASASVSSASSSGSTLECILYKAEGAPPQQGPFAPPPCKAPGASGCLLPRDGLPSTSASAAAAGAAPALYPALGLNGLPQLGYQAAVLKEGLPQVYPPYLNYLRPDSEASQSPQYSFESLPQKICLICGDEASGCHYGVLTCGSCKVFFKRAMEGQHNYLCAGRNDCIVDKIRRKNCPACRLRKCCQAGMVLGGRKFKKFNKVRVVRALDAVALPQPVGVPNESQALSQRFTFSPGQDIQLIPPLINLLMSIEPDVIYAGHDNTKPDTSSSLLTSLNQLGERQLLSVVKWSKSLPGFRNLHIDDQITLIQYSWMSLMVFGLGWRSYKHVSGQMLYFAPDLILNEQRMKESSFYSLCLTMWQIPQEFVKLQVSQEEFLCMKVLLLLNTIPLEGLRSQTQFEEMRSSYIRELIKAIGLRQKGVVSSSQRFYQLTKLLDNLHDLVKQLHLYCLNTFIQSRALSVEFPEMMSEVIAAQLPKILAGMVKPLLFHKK
Kind of experiment: (§3) In vitro antagonistic activity against human progesterone receptor (hPR). The experiment is classed as functional.

The target of experiment [8] is T7, Progesterone receptor (Homo sapiens, UniProt P06401).
T7 sequence (P06401 whole entry): T6 sequence (whole entry)
Described as §3. The class given is functional.

Experiment [9] deals with T1, Androgen receptor. The source holds these as a separate data set.
Description: In vitro agonistic activity against human androgen receptor using cotransfection assay in CV-1 cells.
For experiment [10], the target named is T1, Androgen receptor. This is another data set of the same source.
Experiment [11] deals with T1, Androgen receptor. In words: biochemical.
Description: In vitro binding affinity at human androgen receptor transfected into COS cells.
Experiment [12] deals with T2, Estrogen receptor. In words: In vitro antagonistic activity against human estrogen receptor (hER); not active. The experiment is classed as functional.
Experiment [13] has as its target T3, Glucocorticoid receptor. Kind of experiment: In vitro antagonistic activity against human glucocorticoid receptor (hGR); not active. The class given is functional.
The target of experiment [14] is T4, Mineralocorticoid receptor. In words: In vitro antagonistic activity against human mineralocorticoid receptor (hMR); not active. The experiment is classed as functional.
The target of experiment [15] is T2, Estrogen receptor. The description is as §1. The experiment is classed as functional. This is another data set of the same source.

Molecules are shown by their SMILES. Some results are limits rather than exact numbers.

As to `CC[C@@H]1CNc2cc3oc(=O)cc(C(F)(F)F)c3cc2[C@H]1CC` (stereo in doubt), the EC50 in experiment [1] amounted to 1400 nM; in [9] it was 5 nM. The half-maximal inhibitory concentration (IC50) in experiment [2] was greater than 10000 nM; in experiment [4], 2800 nM; in experiment [5], 1900 nM; in [8], 65 nM. For the same compound, the figures for the Efficacy in [3], in [6] and in [7] were less than 20%, 50% and 98%, respectively.

`O=c1cc(C(F)(F)F)c2cc3c(cc2o1)NCCC3` came in with an EC50 in experiment [9] of 19 nM. The IC50 is greater than 10 nM in experiment [10] and 1 nM in experiment [11].

`CCC1CC(C)c2cc3c(C(F)(F)F)cc(=O)oc3cc2N1` (cis isomer) registered an EC50 in experiment [9] of 8 nM. The half-inhibitory concentration (IC50) in experiment [10] is greater than 10 nM; in experiment [11] it was 11 nM.

As to `CC[C@H]1C[C@@H](C)Nc2cc3oc(=O)cc(C(F)(F)F)c3cc21` (relative stereo), the figures for the EC50 in experiment [1] and in [9] were 16 nM and 27 nM, respectively. Moreover, the half-maximal inhibitory concentration (IC50) in experiment [11] was determined as 12 nM.

With `CC[C@@H]1c2cc3c(C(F)(F)F)cc(=O)oc3cc2NC[C@H]1C` (relative stereo), the half-maximal inhibitory concentration (IC50) in experiment [12] is greater than 10000 nM; in [4] it was 2300 nM; in experiment [5], 3000 nM; in experiment [8], 130 nM; in [10] it was greater than 10 nM; in experiment [11], 0.3 nM. Moreover, the Efficacy in experiment [3] was less than 20%; in [6] it was 60%; in experiment [7] it was 98%. The same compound yielded a 50% effective concentration (EC50) in [9] of 1 nM.

In [9], `O=c1cc(C(F)(F)F)c2cc3c(cc2o1)NCCC3C(F)(F)C(F)(F)F` (centres undefined) showed an EC50 of 13 nM. The concentration for half-maximal inhibition (IC50) in [10] is greater than 10 nM; in [11], 5 nM.

As to `CCC1CCN(C)c2cc3oc(=O)cc(C(F)(F)F)c3cc21` (centres undefined), the concentration giving a half-maximal response (EC50) in [9] came to 209 nM. In addition, the results for the concentration for half-maximal inhibition (IC50) in experiment [10] and in experiment [11] were greater than 10 nM and 276 nM, respectively.

As to `CC1(C)CCc2cc3c(C(F)(F)F)cc(=O)oc3cc2N1`, the IC50 in [12] was greater than 10000 nM; in experiment [13] it was greater than 10000 nM; in [5], 1500 nM; in [8], 570 nM; in [10], greater than 10 nM; in experiment [11] it was 1 nM. Moreover, the Efficacy in [3] is less than 20%; in [6], 50%; in experiment [7], 84%. Also, the midpoint of the response in experiment [9], the EC50, lay at 9 nM.

With `CCC1CCc2cc3c(C(F)(F)F)cc(=O)oc3cc2N1` (centres undefined), in experiment [9], the EC50 was 7 nM. Also, the 50% inhibitory concentration (IC50) in experiment [10] is greater than 10 nM; in experiment [11], 1 nM.

In experiment [9], `CCC1CC(CC)c2cc3c(C(F)(F)F)cc(=O)oc3cc2N1` (trans isomer) returned a concentration for a half-maximal effect (EC50) of 26 nM. For the same compound, the IC50 in experiment [10] is greater than 10 nM; in [11], 7 nM.

`CC[C@H]1CNc2cc3oc(=O)cc(C(F)(F)F)c3cc2[C@@H]1CC` (stereo in doubt) gave a 50% effective concentration (EC50) in experiment [9] of 5 nM. Moreover, the IC50 in experiment [10] was greater than 10 nM.

On to `CC1=CC(C)(C)Nc2cc3oc(=O)cc(C(F)(F)F)c3cc21`, for which the half-maximal inhibitory concentration (IC50) in experiment [12] was greater than 10000 nM; in [13] it was greater than 10000 nM; in [14] it was greater than 10000 nM; in experiment [8], 100 nM. In addition, the Efficacy in [3] was less than 20%; in experiment [6] it was less than 20%; in [7] it was 79%.

As for `CC[C@H]1c2cc3c(C(F)(F)F)cc(=O)oc3cc2NC[C@H]1C` (relative stereo), the IC50 in [15] is 3100 nM; in [4], 340 nM; in experiment [5], 2800 nM; in [8], 130 nM; in [10], greater than 10 nM; in experiment [11], 2 nM. Besides, the figures for the Efficacy in [3], in [6] and in [7] were 33%, 39% and 87%, respectively. For the same compound, the EC50 in [9] came to 7 nM.
